Source: ChEMBL document CHEMBL5131460, “Glenthenamines A-F: Enamine Pyranonaphthoquinones from the Australian Pasture Plant Derived Streptomyces sp. CMB-PB042” (J Nat Prod, 2022)

Experiments:
[1] = system: SW620/AD300; test: Cytotoxicity against human SW620/AD300 cells incubated for 48 hrs by MTT assay; format: functional, cell-based; settings: SW620/AD300, 48 h
[2] = system: Candida albicans; test: Antimicrobial activity against Candida albicans ATCC 10231 incubated for 16 hrs by microplate reader method; format: functional, organism-based; settings: ATCC 10231, 16 h
[3] = molecular target: ATP-dependent translocase ABCB1 (Homo sapiens, UniProt P08183); test: Reversal of P-glycoprotein mediated doxorubicin resistance in human SW620/AD300 cells overexpressing P-gp assessed as gain in sensitivity against doxorubicin at 2.5 uM incubated for 52 hrs by MTT assay; format: cell-based; settings: sw620/ad300, 52 h
ATP-dependent translocase ABCB1, sequence (P08183 whole entry): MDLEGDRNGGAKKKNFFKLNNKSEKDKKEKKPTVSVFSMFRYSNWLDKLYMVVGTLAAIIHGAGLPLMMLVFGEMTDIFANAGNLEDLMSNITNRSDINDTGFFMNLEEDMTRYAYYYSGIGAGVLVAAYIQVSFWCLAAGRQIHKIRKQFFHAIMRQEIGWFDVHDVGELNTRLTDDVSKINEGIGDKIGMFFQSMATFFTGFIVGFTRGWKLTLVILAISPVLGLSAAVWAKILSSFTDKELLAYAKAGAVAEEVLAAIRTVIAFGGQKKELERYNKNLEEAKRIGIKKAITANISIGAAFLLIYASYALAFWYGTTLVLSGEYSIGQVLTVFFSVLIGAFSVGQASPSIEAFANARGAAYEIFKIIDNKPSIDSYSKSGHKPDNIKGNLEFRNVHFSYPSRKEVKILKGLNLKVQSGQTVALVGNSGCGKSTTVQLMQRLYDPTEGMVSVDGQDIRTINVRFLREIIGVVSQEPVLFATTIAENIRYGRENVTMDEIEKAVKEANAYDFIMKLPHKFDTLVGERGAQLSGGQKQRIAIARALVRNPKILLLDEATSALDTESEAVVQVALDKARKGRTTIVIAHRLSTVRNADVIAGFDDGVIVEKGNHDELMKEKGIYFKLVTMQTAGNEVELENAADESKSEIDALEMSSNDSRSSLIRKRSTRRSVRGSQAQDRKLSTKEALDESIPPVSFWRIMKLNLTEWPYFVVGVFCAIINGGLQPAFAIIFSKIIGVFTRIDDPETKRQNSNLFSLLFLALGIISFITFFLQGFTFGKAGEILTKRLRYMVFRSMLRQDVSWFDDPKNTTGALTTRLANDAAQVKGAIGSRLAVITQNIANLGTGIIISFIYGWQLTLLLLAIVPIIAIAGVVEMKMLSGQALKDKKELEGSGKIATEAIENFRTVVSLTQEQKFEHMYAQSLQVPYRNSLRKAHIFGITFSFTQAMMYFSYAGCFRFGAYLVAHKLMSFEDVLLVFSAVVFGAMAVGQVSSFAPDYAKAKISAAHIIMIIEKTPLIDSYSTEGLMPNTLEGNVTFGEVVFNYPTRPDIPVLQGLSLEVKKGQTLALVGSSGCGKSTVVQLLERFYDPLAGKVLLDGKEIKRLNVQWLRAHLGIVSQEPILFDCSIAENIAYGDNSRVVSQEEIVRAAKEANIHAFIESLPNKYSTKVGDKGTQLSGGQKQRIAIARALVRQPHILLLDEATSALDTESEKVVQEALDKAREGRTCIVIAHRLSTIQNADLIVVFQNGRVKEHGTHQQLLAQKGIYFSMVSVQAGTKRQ

[4] = system: NCI-H460; test: Cytotoxicity against human NCI-H460 cells incubated for 48 hrs by MTT assay; format: functional, cell-based; settings: NCI-H460, 48 h

IC50 [2]	Activity [3]	Compound	IC50 [1]	IC50 [4]
> 30 µM	45%	C[C@H]1O[C@H](CC(=O)O)Cc2c1c(O)c1c3c(c4n(c23)[C@@H]([C@@H](C)O)CC4)C=CC1=O	> 30 µM	> 30 µM
> 30 µM	45%	C[C@@H]1OC(CC(=O)O)=Cc2c1c(O)c1c3c(c4n(c23)[C@H]([C@@H](C)O)CC4)C=CC1=O	> 30 µM	> 30 µM
> 30 µM	45%	C[C@@H]1O[C@@H](CC(=O)O)C(=O)c2c1c(O)c1c3c(c4n(c23)[C@H]([C@@H](C)O)CC4)C=CC1=O	> 30 µM	> 30 µM
> 30 µM	45%	C[C@H]1OC(CC(=O)O)=Cc2c1c(O)c1c3c(c4n(c23)[C@H]([C@@H](C)O)CC4)C=CC1=O	> 30 µM	> 30 µM
> 30 µM		C[C@@H](O)[C@@H]1CCc2c3c4c(c(O)c(O)c(C[C@@H](O)CC(=O)O)c4n21)C(=O)C=C3	> 30 µM	> 30 µM
> 30 µM	45%	COC(=O)C[C@H]1Cc2c(c(O)c3c4c(c5n(c24)[C@H]([C@@H](C)O)CC5)C=CC3=O)[C@H](C)O1	> 30 µM	> 30 µM
> 30 µM		C[C@H]1Oc2c(O)c3c4c(c5n(c4c2C[C@H](CC(=O)O)O1)[C@H]([C@@H](C)O)CC5)C=CC3=O	> 30 µM	> 30 µM

Compound	IC50 [2]	Activity [3]	IC50 [1]	IC50 [4]
C[C@H]1O[C@]2(C)CC(=O)O[C@]2(C)c2c1c(O)c1c3c(c4n(c23)[C@@H]([C@@H](C)O)CC4)C=CC1=O	> 30 µM		> 30 µM	> 30 µM
